Test results taken from publication PMC8501799, “Constitutive signal bias mediated by the human GHRHR splice variant 1” (Proceedings of the National Academy of Sciences of the …, 2021).

Legend:
Format in all cases: cell-based, human
[1] = test system: 22Rv1 cells; test: ERK1/2 phosphorylation in prostate cancer cells; settings: 1 μM GHRH; among three prostate cancer cell lines
Experimental: (§1) Spodoptera frugiperda (Sf9) insect cells (Expression Systems) were grown in ESF 921 serum-free medium (Expression Systems) at 27 °C and 120 rpm. HEK293T cells were purchased from American Type Culture Collection (ATCC), cultured in Dulbecco’s modified Eagle’s medium (DMEM; Life Technologies), supplemented with 10% fetal bovine serum (FBS; Gibco), and maintained in a humidified chamber with 5% CO2 at 37 °C. The PC3 prostate cancer cell line (ATCC) was cultured in F12 medium supplemented with 10% FBS and maintained in a humidified chamber with 5% CO2 at 37 °C. 22Rv1 and LNCaP human prostate cancer cells (ATCC) were cultured in Roswell Park Memorial Institute (RPMI)-1640 medium supplemented with 10% FBS and maintained in a humidified atmosphere containing 5% CO2 at 37 °C.
ERK1/2 phosphorylation was detected with the AlphaScreen SureFire ERK1/2 assay kit (PerkinElmer). […] The plate was incubated in the dark at 37 °C for 1 h, after which the fluorescence signal was measured by an Envision plate reader using standard AlphaScreen settings.
The cells were then lysed with radioimmunoprecipitation assay lysis buffer (Sigma-Aldrich) on ice for 5 min and centrifuged at 12,000 rpm for 15 min. Protein concentration of the supernatant was determined by BCA protein assay kit (Beyotime). […]

[2] = test system: GHRHR ECD mutants (L34, L62, F82, F85 to alanine); test: β-arrestin 1/2 recruitment (BRET), GHRHR ECD alanine mutants; settings: HEK293T
Experimental: HEK293T cells were seeded at a density of 30,000 cells per well into 96-well culture plates pretreated with poly-D-lysine hydrobromide. After incubation for 24 h to reach 70% to 80% confluence, the cells were transiently transfected with HA-Flag-GHRHR-Rluc8 or HA-Flag-SV1-Rluc8 and β-arrestin 1/2-Venus at a 1:9 mass ratio using lipofectamine 3000 reagent (Invitrogen) and cultured for another 24 h. Thereafter, cells were washed once and incubated for 30 min at 37 °C with HBSS buffer (pH 7.4) supplemented with 0.1% BSA and 10 mM HEPES. Five micromolars of coelenterazine h (YEASEN Biotechnology) was then added and incubated for 5 min in the dark. The bioluminescence resonance energy transfer (BRET) signals were detected with an Envision plate reader by calculating the ratio of emission at 535 nm over emission at 470 nm.

[3] = test system: 22Rv1 cells; test: cAMP accumulation in prostate cancer cells; settings: concentration-response, Fig. 1E; 22Rv1 express high levels of SV1
Experimental: as §1
(§2) GHRH-stimulated cAMP accumulation was measured by a LANCE Ultra cAMP kit (PerkinElmer). Briefly, HEK293T cells (24 h after transfection with SV1 or GHRHR) or prostate cancer cells were digested by 0.2% (wt/vol) EDTA and washed once with Dulbecco’s phosphate-buffered saline (PBS). Cells were then resuspended with stimulation buffer (Hanks’ balanced salt solution [HBSS] supplemented with 5 mM HEPES, 0.5 mM IBMX, and 0.1% [wt/vol] bovine serum albumin [BSA], pH 7.4) to a density of 0.6 million cells per milliliter and added to 384-well white plates (3,000 cells per well). […] The reaction was stopped by adding 5 μL Eu-cAMP tracer and 5 μL ULight-anti-cAMP. After 1 h RT incubation, TR-FRET signals (excitation: 320 nm, emission: 615 and 665 nm) were measured by an Envision plate reader (PerkinElmer). cAMP concentrations were interpolated by a standard curve.

[4] = test system: LNCaP cells; test: cAMP accumulation in prostate cancer cells; settings: concentration-response, Fig. 1E; LNCaP express high levels of GHRHR
Experimental: as §1, §2

[5] = test system: PC3 cells; test: cAMP accumulation in prostate cancer cells; settings: concentration-response, Fig. 1E; PC3 low expression of both
Experimental: as §1, §2

With `CC[C@H](C)[C@H](NC(=O)[C@H](C)NC(=O)[C@H](CC(=O)O)NC(=O)[C@H](C)NC(=O)[C@@H](N)Cc1ccc(O)cc1)C(=O)N[C@@H](Cc1ccccc1)C(=O)N[C@H](C(=O)N[C@@H](CC(N)=O)C(=O)N[C@@H](CO)C(=O)N[C@@H](Cc1ccc(O)cc1)C(=O)N[C@@H](CCCNC(=N)N)C(=O)N[C@@H](CCCCN)C(=O)N[C@H](C(=O)N[C@@H](CC(C)C)C(=O)NCC(=O)N[C@@H](CCC(N)=O)C(=O)N[C@@H](CC(C)C)C(=O)N[C@@H](CO)C(=O)N[C@@H](C)C(=O)N[C@@H](CCCNC(=N)N)C(=O)N[C@@H](CCCCN)C(=O)N[C@@H](CC(C)C)C(=O)N[C@@H](CC(C)C)C(=O)N[C@@H](CCC(N)=O)C(=O)N[C@@H](CC(=O)O)C(=O)N[C@H](C(=O)N[C@@H](CCSC)C(=O)N[C@@H](CO)C(=O)N[C@@H](CCCNC(=N)N)C(=O)N[C@@H](CCC(N)=O)C(=O)N[C@@H](CCC(N)=O)C(=O)NCC(=O)N[C@@H](CCC(=O)O)C(=O)N[C@@H](CO)C(=O)N[C@@H](CC(N)=O)C(=O)N[C@@H](CCC(N)=O)C(=O)N[C@@H](CCC(=O)O)C(=O)N[C@@H](CCCNC(=N)N)C(=O)NCC(=O)N[C@@H](C)C(=O)N[C@@H](CCCNC(=N)N)C(=O)N[C@@H](C)C(=O)N[C@@H](CCCNC(=N)N)C(=O)N[C@@H](CC(C)C)C(N)=O)[C@@H](C)CC)C(C)C)[C@@H](C)O` [GHRH, growth hormone–releasing hormone] the pERK1/2 response [1] was “markedly stronger and longer pERK1/2 response”, the “β-arrestin 1/2 recruitments” value ([2]; F82A and F85A mutants of GHRHR) was “enhanced β-arrestin 1/2 recruitments” and the “β-arrestin 1/2 recruitments” value ([2]; any or all of four ECD residues (L34, L62, F82, F85) to alanine) was “enhanced β-arrestin 1/2 recruitments”. The cAMP response [3] was “either markedly reduced or marginal cAMP responses”, the cAMP response [4] was “strongest cAMP response” and the cAMP response [5] was “either markedly reduced or marginal cAMP responses”.
